Test results taken from PMC11514289 (Nature Communications, 2024).

How the values were obtained:
SaSir2-HerA = biological target: T1, SaSir2-HerA (Staphylococcus aureus, UniProt C1PH93); assay: biolayer interferometry, protein captured on Ni-NTA sensor; type: binding
T1 sequence (C1PH93 1-428): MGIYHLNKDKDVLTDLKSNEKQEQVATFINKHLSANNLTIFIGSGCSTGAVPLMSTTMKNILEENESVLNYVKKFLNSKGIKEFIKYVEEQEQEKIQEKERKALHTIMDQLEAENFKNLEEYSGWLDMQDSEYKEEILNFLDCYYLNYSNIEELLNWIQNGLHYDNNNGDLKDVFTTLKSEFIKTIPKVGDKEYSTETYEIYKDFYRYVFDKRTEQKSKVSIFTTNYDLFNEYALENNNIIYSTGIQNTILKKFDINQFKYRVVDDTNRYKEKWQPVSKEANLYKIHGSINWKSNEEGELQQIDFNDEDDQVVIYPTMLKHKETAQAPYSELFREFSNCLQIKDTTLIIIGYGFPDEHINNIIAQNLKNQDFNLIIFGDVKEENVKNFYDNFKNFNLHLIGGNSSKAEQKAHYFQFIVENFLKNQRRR
T1 sequence (C1PH94 1-562 partner): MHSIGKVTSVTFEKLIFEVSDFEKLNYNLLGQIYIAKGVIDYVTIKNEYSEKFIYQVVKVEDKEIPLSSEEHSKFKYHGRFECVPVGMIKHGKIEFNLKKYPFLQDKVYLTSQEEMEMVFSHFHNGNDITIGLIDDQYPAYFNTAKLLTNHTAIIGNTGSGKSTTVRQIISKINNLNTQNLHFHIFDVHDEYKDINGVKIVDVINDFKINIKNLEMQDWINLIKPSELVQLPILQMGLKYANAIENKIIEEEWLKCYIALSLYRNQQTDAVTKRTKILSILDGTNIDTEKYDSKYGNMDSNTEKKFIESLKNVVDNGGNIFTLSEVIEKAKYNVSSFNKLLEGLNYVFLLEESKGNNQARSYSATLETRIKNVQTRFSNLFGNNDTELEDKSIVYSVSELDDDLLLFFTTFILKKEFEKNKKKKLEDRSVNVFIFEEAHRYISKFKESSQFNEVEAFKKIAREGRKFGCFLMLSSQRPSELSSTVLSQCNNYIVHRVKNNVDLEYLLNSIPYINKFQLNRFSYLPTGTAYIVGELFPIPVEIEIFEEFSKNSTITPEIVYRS

[1] = biological target: SaSir2 (Sir2 of Staphylococcus aureus), 6x His-tagged, expressed alone (Staphylococcus aureus); assay: AUC

| Compound | Kd (SaSir2-HerA) [µM] | stoichiometry N [1] |
| --- | --- | --- |
| NC(=O)c1ccc[n+]([C@@H]2O[C@H](COP(=O)(O)OP(=O)(O)OC[C@H]3O[C@@H](n4cnc5c(N)ncnc54)[C@H](O)[C@@H]3O)[C@@H](O)[C@H]2O)c1 [NAD^+] | 4.39 | – |
| SaSir2 (Sir2 of Staphylococcus aureus), 6x His-tagged, expressed alone (enzyme) | – | 2 |
